# Measurements published in PubChem BioAssay (NCI).
#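 Interpolation was linear, between the two tested concentrations surrounding the appropriate level; five concentrations were tested over 48 hours in 96-well plates. GI50: concentration for 50% inhibition of growth. TGI: concentration producing complete growth inhibition.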
# Key:
# Test in all cases: NCI anticancer screen, dose series, 48 h
# 786-0 renal = test system: 786-0 renal
# A498 renal = test system: A498 renal
# A549 NSCLC = test system: A549 NSCLC
# ACHN renal = test system: ACHN renal
# BT-549 breast = test system: BT-549 breast
# CAKI-1 renal = test system: CAKI-1 renal
# CCRF-CEM leukemia = test system: CCRF-CEM leukemia
# COLO 205 colon = test system: COLO 205 colon
# DU-145 prostate = test system: DU-145 prostate
# EKVX NSCLC = test system: EKVX NSCLC
# HCC-2998 colon = test system: HCC-2998 colon
# HCT-116 colon = test system: HCT-116 colon
# HCT-15 colon = test system: HCT-15 colon
# HL-60(TB) leukemia = test system: HL-60(TB) leukemia
# HOP-62 NSCLC = test system: HOP-62 NSCLC
# HS 578T breast = test system: HS 578T breast
# HT29 colon = test system: HT29 colon
# K-562 leukemia = test system: K-562 leukemia
# KM12 colon = test system: KM12 colon
# LOX IMVI melanoma = test system: LOX IMVI melanoma
# M14 melanoma = test system: M14 melanoma
# MCF7 breast = test system: MCF7 breast
# MDA-MB-231 breast = test system: MDA-MB-231 breast
# MDA-MB-435 = test system: MDA-MB-435
# MOLT-4 leukemia = test system: MOLT-4 leukemia
# NCI-H226 lung = test system: NCI-H226 lung
# NCI-H23 lung = test system: NCI-H23 lung
# NCI-H460 lung = test system: NCI-H460 lung
# NCI-H522 lung = test system: NCI-H522 lung
# NCI/ADR-RES ovarian = test system: NCI/ADR-RES ovarian
# OVCAR-3 ovarian = test system: OVCAR-3 ovarian
# OVCAR-4 ovarian = test system: OVCAR-4 ovarian
# OVCAR-5 ovarian = test system: OVCAR-5 ovarian
# OVCAR-8 ovarian = test system: OVCAR-8 ovarian
# PC-3 prostate = test system: PC-3 prostate
# RPMI-8226 leukemia = test system: RPMI-8226 leukemia
# RXF 393 renal = test system: RXF 393 renal
# SF-268 CNS = test system: SF-268 CNS
# SF-295 CNS = test system: SF-295 CNS
# SF-539 CNS = test system: SF-539 CNS
# SK-MEL-2 melanoma = test system: SK-MEL-2 melanoma
# SK-MEL-28 melanoma = test system: SK-MEL-28 melanoma
# SK-MEL-5 melanoma = test system: SK-MEL-5 melanoma
# SK-OV-3 ovarian = test system: SK-OV-3 ovarian
# SN12C renal = test system: SN12C renal
# SNB-19 CNS = test system: SNB-19 CNS
# SNB-75 CNS = test system: SNB-75 CNS
# SR leukemia = test system: SR leukemia
# SW-620 colon = test system: SW-620 colon
# T-47D breast = test system: T-47D breast
# TK-10 renal = test system: TK-10 renal
# U251 CNS = test system: U251 CNS
# UACC-257 melanoma = test system: UACC-257 melanoma
# UACC-62 melanoma = test system: UACC-62 melanoma
smiles,measurement,setting,value
COc1cc([N+](=O)[O-])c2ncccc2c1[N+](=O)[O-],GI50,786-0 renal,10.7 µM
same,TGI,786-0 renal,23.3 µM
same,GI50,A498 renal,12.3 µM
same,TGI,A498 renal,32 µM
same,GI50,A549 NSCLC,17.8 µM
same,TGI,A549 NSCLC,34.5 µM
same,GI50,ACHN renal,4.75 µM
same,TGI,ACHN renal,16.5 µM
same,GI50,BT-549 breast,7.62 µM
same,TGI,BT-549 breast,20.2 µM
same,GI50,CAKI-1 renal,1.65 µM
same,TGI,CAKI-1 renal,4 µM
same,GI50,CCRF-CEM leukemia,3.44 µM
same,TGI,CCRF-CEM leukemia,28.6 µM
same,GI50,COLO 205 colon,10.1 µM
same,TGI,COLO 205 colon,22.9 µM
same,GI50,DU-145 prostate,4.39 µM
same,TGI,DU-145 prostate,15.8 µM
same,GI50,EKVX NSCLC,15.4 µM
same,TGI,EKVX NSCLC,29.4 µM
same,GI50,HCC-2998 colon,4.82 µM
same,TGI,HCC-2998 colon,17.8 µM
same,GI50,HCT-116 colon,3.47 µM
same,TGI,HCT-116 colon,11.9 µM
same,GI50,HCT-15 colon,5.39 µM
same,TGI,HCT-15 colon,21.6 µM
same,GI50,HL-60(TB) leukemia,3.39 µM
same,TGI,HL-60(TB) leukemia,> 100 µM
same,GI50,HOP-62 NSCLC,11.7 µM
same,TGI,HOP-62 NSCLC,24.8 µM
same,GI50,HS 578T breast,3.87 µM
same,TGI,HS 578T breast,29.4 µM
same,GI50,HT29 colon,2.28 µM
same,TGI,HT29 colon,5.52 µM
same,GI50,K-562 leukemia,3.97 µM
same,TGI,K-562 leukemia,> 100 µM
same,GI50,KM12 colon,2.98 µM
same,TGI,KM12 colon,10.5 µM
same,GI50,LOX IMVI melanoma,2.31 µM
same,TGI,LOX IMVI melanoma,8.29 µM
same,GI50,M14 melanoma,4.24 µM
same,TGI,M14 melanoma,15.8 µM
same,GI50,MCF7 breast,3.26 µM
same,TGI,MCF7 breast,32.1 µM
same,GI50,MDA-MB-231 breast,11.6 µM
same,TGI,MDA-MB-231 breast,24.8 µM
same,GI50,MDA-MB-435,3.9 µM
same,TGI,MDA-MB-435,15.1 µM
same,GI50,MOLT-4 leukemia,4.92 µM
same,TGI,MOLT-4 leukemia,> 100 µM
same,GI50,NCI-H226 lung,15.3 µM
same,TGI,NCI-H226 lung,31.5 µM
same,GI50,NCI-H23 lung,3.91 µM
same,TGI,NCI-H23 lung,16.1 µM
same,GI50,NCI-H460 lung,6.07 µM
same,TGI,NCI-H460 lung,24.6 µM
same,GI50,NCI-H522 lung,1.13 µM
same,TGI,NCI-H522 lung,2.62 µM
same,GI50,NCI/ADR-RES ovarian,2.8 µM
same,TGI,NCI/ADR-RES ovarian,10.8 µM
same,GI50,OVCAR-3 ovarian,2.68 µM
same,TGI,OVCAR-3 ovarian,6.72 µM
same,GI50,OVCAR-4 ovarian,1.82 µM
same,TGI,OVCAR-4 ovarian,3.37 µM
same,GI50,OVCAR-5 ovarian,16.4 µM
same,TGI,OVCAR-5 ovarian,31.1 µM
same,GI50,OVCAR-8 ovarian,4.33 µM
same,TGI,OVCAR-8 ovarian,15.9 µM
same,GI50,PC-3 prostate,4.18 µM
same,TGI,PC-3 prostate,17 µM
same,GI50,RPMI-8226 leukemia,6.15 µM
same,TGI,RPMI-8226 leukemia,26.5 µM
same,GI50,RXF 393 renal,4.37 µM
same,TGI,RXF 393 renal,17.5 µM
same,GI50,SF-268 CNS,3.72 µM
same,TGI,SF-268 CNS,15.3 µM
same,GI50,SF-295 CNS,4.51 µM
same,TGI,SF-295 CNS,14.3 µM
same,GI50,SF-539 CNS,3.61 µM
same,TGI,SF-539 CNS,13.6 µM
same,GI50,SK-MEL-2 melanoma,4.17 µM
same,TGI,SK-MEL-2 melanoma,12.3 µM
same,GI50,SK-MEL-28 melanoma,13.2 µM
same,TGI,SK-MEL-28 melanoma,27.1 µM
same,GI50,SK-MEL-5 melanoma,12.6 µM
same,TGI,SK-MEL-5 melanoma,25.3 µM
same,GI50,SK-OV-3 ovarian,12.6 µM
same,TGI,SK-OV-3 ovarian,25.4 µM
same,GI50,SN12C renal,12.5 µM
same,TGI,SN12C renal,25.3 µM
same,GI50,SNB-19 CNS,15.9 µM
same,TGI,SNB-19 CNS,30.8 µM
same,GI50,SNB-75 CNS,3.77 µM
same,TGI,SNB-75 CNS,18 µM
same,GI50,SR leukemia,3.33 µM
same,TGI,SR leukemia,> 100 µM
same,GI50,SW-620 colon,1.82 µM
same,TGI,SW-620 colon,3.44 µM
same,GI50,T-47D breast,3.1 µM
same,TGI,T-47D breast,11.7 µM
same,GI50,TK-10 renal,7.04 µM
same,TGI,TK-10 renal,19.6 µM
same,GI50,U251 CNS,4.45 µM
same,TGI,U251 CNS,16.6 µM
same,GI50,UACC-257 melanoma,13.5 µM
same,TGI,UACC-257 melanoma,31.2 µM
same,GI50,UACC-62 melanoma,12 µM
same,TGI,UACC-62 melanoma,25.1 µM
